{"source": "patent US20250161428A1", "about": "“PREVENTING/TREATING PSEUDOMONAS AERUGINOSA INFECTION” (priority 2022, published 2025)", "key": {"[1]": {"system": "mAb 1B1", "experiment": "mAb inhibition ELISA with synthetic oligosaccharides, mAb 1B1", "format": "binding, mouse", "conditions": "P. aeruginosa PAO1 BAA-47 LPS or whole cell coated plates, 10 μg/ml mAb", "from_the_text": "FIGS. 15A, 15B, and 15C show inhibition ELISAs of mAbs 1B1 (FIG. 15A), 3C4 (FIG. 15B) and 3B8 (FIG. 15C) with LPS (left hand panels; square markers—P. aeruginosa PAO1 BAA-47, inverted triangle markers—P. aeruginosa (wzy::Gm)(Δpa5458), diamond markers—N. meningitidis galE/lpt3 and circular markers—PBS control) or synthetic oligosaccharides representing the terminal methylated rhamnan (right hand panels; solid circle markers—pentasaccharide, open square markers—tetrasaccharide, open circle markers—trisaccharide, inverted triangle markers—disaccharide, diamond markers—disaccharide with linker, triangle markers—L-monomer, solid square markers—D-monomer) against P. aeruginosa PAO1 BAA-47 LPS. Serial dilution, as shown on the x-axis, of either LPS or synthetic oligosaccharide was combined at an equal volume with 10 μg/ml mAb. After 1 h incubation, 100 μl of this inhibition mixture was added to PAO1 BAA-47 LPS coated plates. A secondary mAb specific for the primary mAb was added and absorbance was measured after a colour reagent was added. The absorbance obtained when the mAb is no longer inhibited by additional LPS or synthetic oligosaccharide is equal to inhibition by PBS.\nFIGS. 15D, 15E, and 15F show inhibition ELISAs of mAbs 1B1 (FIG. 15D), 3C4 (FIG. 15E) and 3B8 (FIG. 15F) with LPS (left hand panels; square markers—P. aeruginosa PAO1 BAA-47, inverted triangle markers—P. aeruginosa (wzy::Gm)(Δpa5458), diamond markers—N. meningitidis galE/lpt3 and circle markers—PBS control) or synthetic oligosaccharides representing the terminal methylated rhamnan (right hand panels; solid circle markers—pentasaccharide, open square markers—tetrasaccharide, open circle markers—trisaccharide, inverted triangle markers—disaccharide, diamond markers—disaccharide with linker, triangle markers—L-monomer, blue—D-monomer) against P. aeruginosa PAO1 BAA-47 whole cells. Serial dilution, as shown on the x-axis, of either LPS or synthetic oligosaccharide was combined at an equal volume with 10 μg/ml mAb. After 1 h incubation, 100 μl of this inhibition mixture was added to PAO1 BAA-47 whole cell coated plates. A secondary mAb specific for primary the mAb was added and absorbance measured after a colour reagent was added. Absorbance obtained when the mAb is no longer inhibited by additional LPS or synthetic oligosaccharide is equal to inhibition by PBS.\nmAb inhibition ELISA: Wells of Nunc Maxisorp EIA plates were coated with either 1 μg of P. aeruginosa LPS in PBS overnight at 4° C. or P. aeruginosa killed whole cells in dH2O in a drying oven overnight, and then brought to RT before use. Plates were blocked with 1% BSA-PBS for 1 h at RT, and then wells were washed with PBS-T. During the blocking step, the inhibition was set-up. Either LPS or a synthetic oligosaccharide was added to a tube at either 1 mg/ml or 3 mg/ml and then a serial dilution with 1% BSA-PBS was performed, before an equal volume of mAb (1B1, 3B8 or 3C4) was added at a constant concentration of 10 μg/ml in 1% BSA-PBS, this mixture was incubated for 1 h at RT. Following washing of the EIA plate with PBS-T, 100 μl from the mixed tubes was added to the plate and allowed to incubate for 1 h at RT for LPS coated plates, or 3 h at RT for killed whole cell coated plates. Following washing with PBS-T, the appropriate AP-labeled goat anti-mouse Ig (Southern Biotech) specific for the mAb used, diluted 1:250 in 1% BSA-PBS, was added for 1 h at RT. The plates were then washed with PBS-T and developed with Phosphatase Substrate System (Kirkegaard and Perry Laboratories). After 60 min, absorbance was measured at 405 nm using a microtiter plate reader. […]"}, "[2]": {"system": "1B1 IgM", "experiment": "SPR binding of synthetic oligosaccharides to 1B1 IgM surface", "parameters": "species or system mouse", "conditions": "for Obs Rmax (observed maximum binding response): high density 1B1 IgM surface, 25° C., HBS-EP; for Obs Rmax (observed maximum binding response) / ka / kd: two runs per oligosaccharide", "method": "Various concentration ranges of synthetic oligosaccharides (see Experimental) were flowed over IgM 1B1 and an irrelevant IgM, Fn 4F1. Mcat lgt2/4: control oligosaccharide.\nSurface plasmon resonance (SPR): SPR binding assays were performed at 25° C. on a Biacore T200 instrument in HBS-EP running buffer (Cytiva Life Sciences, Mississauga, Canada), essentially as described previously. Briefly, approximately 13000 RUs of IgM (PA 1B1 and control Fn 4F1) were amine coupled to a CM7S sensor chip in 10 mM acetate buffer, pH 4.0 (Cytiva). Synthetic oligosaccharides were reconstituted in HBS-EP to 25 mM and a series of dilutions prepared for injection over IgM surfaces. The contact time was 60 s and the dissociation time 120 s (mono-, di-) or 180 s (tri-, tetra-, penta-). The following concentration ranges were injected: mono- (1 mM-62.5 μM), di- (200 μM-12.5 μM) and tri-, tetra- and penta- (10 μM-625 nM). Mcat lgt2/4 an oligosaccharide from Moraxella catarrhalis, served as a control and was injected at 10 μM. Surfaces were regenerated by extensive washing with HBS-EP. Reference flow cell subtracted sensorgrams were fit to a 1:1 binding model to determine binding kinetics and affinities, or affinities were determined by steady-state analysis.\nSynthetic carbohydrates ranging from a monosaccharide to pentasaccharide were flowed over high density surfaces of 1B1 IgM and an irrelevant IgM, Fn 4F1."}, "[3]": {"system": "killed whole cells of P. aeruginosa strains", "experiment": "ELISA binding of mAbs to killed whole cells", "conditions": "summary statement, serotype strains and clinical isolates", "method": "FIGS. 11A, 11B, and 11C show ELISA analysis of binding of 1B1 (FIG. 11A), 3B8 (FIG. 11B), and 3C4 (FIG. 11C) purified monoclonal antibodies (mAbs) (all at 100 μg/ml) to killed whole cells of P. aeruginosa strains NRCC #'s 6678, 6668-70, 6954-60 and negative control strains M. catarrhalis 6541 and N. meningitidis 6263 (see Table 1 for full details of strains).\nELISA: The binding of anti-P. aeruginosa A-band terminal epitope mAbs and polyclonal sera to BSA conjugates, purified LPS and to whole cells was evaluated by ELISA as described previously."}, "[4]": {"system": "purified PAO1 LPS", "experiment": "mAb competition ELISA", "format": "binding, P. aeruginosa", "conditions": "PAO1 LPS coated plates; 3C4 at 62.5 μg/ml", "method": "(§1) The plate was washed and mAb 3C4 was added at a constant concentration (62.5 μg/ml). A secondary mAb specific for mAb 3C4 was added and absorbance was measured after a colour reagent was added (line with square markers). The absorbance obtained when 3C4 was added to the plate without 1B1 competition is shown by the line with a triangle marker.\nas §1, with “to” for “to the”, “3B8” for “1B1”\nmAb competition ELISA: Wells of Nunc Maxisorp EIA plates were coated with 1 μg of P. aeruginosa LPS in PBS overnight at 4° C. and then brought to RT before use. Plates were blocked with 1% BSA-PBS for 1 h at RT, and then wells were washed with PBS-T. One mAb (1B1 or 3B8) was titrated and added to the plate for 1 h at RT. Following washing with PBS-T, the second mAb (3C4) was added at a pre-determined concentration and allowed to incubate for 1 h at RT. Following washing with PBS-T, AP-labeled goat anti-mouse IgG2b (Southern Biotech) specific for mAb 3C4, diluted 1:250 in 1% BSA-PBS was added for 1 h at RT. The plates were then washed with PBS-T and developed with Phosphatase Substrate System (Kirkegaard and Perry Laboratories). After 60 min absorbance was measured at 405 nm using a microtiter plate reader."}, "[5]": {"conditions": "1:1 binding model, table: two runs, text: one value per oligosaccharide, read-out: KD"}, "[6]": {"conditions": "1:1 binding model, listed as Tri-"}}, "note": "Values joined by “and” are separate entries in the source; they are usually repeats but may differ in a detail not shown here. Identical values can stand only once. Like-named read-outs stand apart in the source and are kept apart here.", "data": [{"molecule": "CO[C@@H]([C@H](O)[C@@H](C)O)[C@H](O)C=O", "note": "[D-monosaccharide, 3-O-Methyl-D-rhamnose]", "values": [{"measurement": "inhibition of binding of mAb 1B1 to its target LPS and killed whole cells", "setting": "[1]", "result": "some evidence of inhibition"}]}, {"molecule": "CO[C@@H]1[C@@H](O)[C@H](C)OC(O)[C@@H]1O", "note": "(stereo partly drawn) [L-monosaccharide, 3-O-Methyl-L-rhamnopyranose]", "values": [{"measurement": "inhibition of binding of mAb 1B1 to its target LPS and killed whole cells", "setting": "[1]", "result": "completely ineffective in inhibition"}]}, {"molecule": "CO[C@@H]1[C@H](O)[C@@H](O[C@H]2[C@H](OC)[C@H](O)C(O)O[C@@H]2C)O[C@H](C)[C@H]1O", "note": "(stereo partly drawn) [disaccharide, 3-O-Methyl-α-D-rhamnopyranoside-(1→4)-3-O-methyl-D-rhamnopyranose]", "values": [{"measurement": "Obs Rmax (observed maximum binding response)", "setting": "[2]; listed as Di-", "result": "14 and 15"}, {"measurement": "Kd", "setting": "[2]; steady-state analysis, listed as Di-, read-out: KD, steady state affinity", "result": "85800 nM and 82500 nM"}, {"measurement": "Kd", "setting": "[2]; steady-state analysis, read-out: KD, steady state affinity", "result": 84000, "unit": "nM"}, {"measurement": "inhibition of binding of mAb 1B1 to its target LPS and killed whole cells", "setting": "[1]", "result": "some evidence of inhibition"}]}, {"molecule": "CO[C@@H]1[C@H](O)[C@@H](O[C@H]2[C@H](OC)[C@H](O)[C@@H](O[C@H]3[C@H](OC)[C@H](O)[C@@H](O[C@H]4[C@H](OC)[C@H](O)[C@@H](O[C@H]5[C@H](OC)[C@H](O)[C@@H](O)O[C@@H]5C)O[C@@H]4C)O[C@@H]3C)O[C@@H]2C)O[C@H](C)[C@H]1O", "note": "[pentasaccharide, 3-O-methyl-α-D-rhamnopyranoside-(1→4)-3-O-methyl-α-D-rhamnopyranoside-(1→4)-3-O-methyl-α-D-rhamnopyranoside-(1→4)-3-O-methyl-α-D-rhamnopyranoside-(1→4)-3-O-methyl-α-D-rhamnopyranose]", "values": [{"measurement": "Kd", "setting": "[2]; 1:1 binding model, table: two runs, text: one value per oligosaccharide, listed as Penta-, read-out: KD", "result": 540, "unit": "nM"}, {"measurement": "Kd", "setting": "[2]; [5]", "result": 550, "unit": "nM"}, {"measurement": "ka", "setting": "[2]; 1:1 binding model", "result": "3430 s⁻¹ and 5430 s⁻¹"}, {"measurement": "kd", "setting": "[2]; 1:1 binding model", "result": "0.00186 M⁻¹ s⁻¹ and 0.0019 M⁻¹ s⁻¹"}, {"measurement": "Obs Rmax (observed maximum binding response)", "setting": "[2]", "result": 34}, {"measurement": "inhibition of binding of mAb 1B1 to its target LPS and killed whole cells", "setting": "[1]", "result": "effectively equivalent in inhibiting"}]}, {"molecule": "CO[C@@H]1[C@H](O)[C@@H](O[C@H]2[C@H](OC)[C@H](O)[C@@H](O[C@H]3[C@H](OC)[C@H](O)[C@@H](O[C@H]4[C@H](OC)[C@H](O)[C@@H](O)O[C@@H]4C)O[C@@H]3C)O[C@@H]2C)O[C@H](C)[C@H]1O", "note": "[tetrasaccharide, 3-O-methyl-α-D-rhamnopyranoside-(1→4)-3-O-methyl-α-D-rhamnopyranoside-(1→4)-3-O-methyl-α-D-rhamnopyranoside-(1→4)-3-O-methyl-α-D-rhamnopyranose]", "values": [{"measurement": "Kd", "setting": "[2]; 1:1 binding model, table: two runs, text: one value per oligosaccharide, listed as Tetra-, read-out: KD", "result": 650, "unit": "nM"}, {"measurement": "Kd", "setting": "[2]; [5]", "result": 660, "unit": "nM"}, {"measurement": "ka", "setting": "[2]; 1:1 binding model", "result": "5690 s⁻¹ and 5260 s⁻¹"}, {"measurement": "kd", "setting": "[2]; 1:1 binding model", "result": "0.00372 M⁻¹ s⁻¹ and 0.00348 M⁻¹ s⁻¹"}, {"measurement": "Obs Rmax (observed maximum binding response)", "setting": "[2]", "result": "28 and 29"}, {"measurement": "inhibition of binding of mAb 1B1 to its target LPS and killed whole cells", "setting": "[1]", "result": "effectively equivalent in inhibiting"}]}, {"molecule": "CO[C@@H]1[C@H](O)[C@@H](O[C@H]2[C@H](OC)[C@H](O)[C@@H](O[C@H]3[C@H](OC)[C@H](O)[C@@H](O)O[C@@H]3C)O[C@@H]2C)O[C@H](C)[C@H]1O", "note": "[trisaccharide, 3-O-methyl-α-D-rhamnopyranoside-(1→4)-3-O-methyl-α-D-rhamnopyranoside-(1→4)-3-O-methyl-α-D-rhamnopyranose]", "values": [{"measurement": "Kd", "setting": "[2]; 1:1 binding model, table: two runs, text: one value per oligosaccharide, listed as Tri-, read-out: KD", "result": "1370 nM and 1460 nM"}, {"measurement": "Kd", "setting": "[2]; [5]", "result": 1420, "unit": "nM"}, {"measurement": "ka", "setting": "[2]; [6]", "result": "12800 s⁻¹ and 12300 s⁻¹"}, {"measurement": "kd", "setting": "[2]; [6]", "result": "0.0176 M⁻¹ s⁻¹ and 0.0179 M⁻¹ s⁻¹"}, {"measurement": "Obs Rmax (observed maximum binding response)", "setting": "[2]", "result": 21}, {"measurement": "inhibition of binding of mAb 1B1 to its target LPS and killed whole cells", "setting": "[1]", "result": "effectively equivalent in inhibiting"}, {"measurement": "inhibition of binding of mAb 1B1 to its target LPS and killed whole cells", "setting": "[1]; listed as 3-O-methyl rhamnan trisaccharide", "result": "effectively inhibited"}]}, {"molecule": "3B8: mouse IgM monoclonal antibody to the A-PS terminus; VH SEQ ID NO: 13, VL SEQ ID NO: 17 (antibody, V domains shown) VH: EIQLQQSGPELVKPGASVKVSCKASGYSFTDYNMYWVKQSHGKSLEWVGYIDPYNGGTTYNQKFKGKATLTVDKSSSTAFMHLNSLTSEDSAVYYCAKGGYRYDAWFAYWGQGTLVTVSA VL: DAVMTQTPLSLPVSLGDHASISCRSSQSLENNNGNTYLNWYLQKPGQSPQLLIYRVSNRFSGVLDRFSGSGSGTDFTLKISRVEAEDLGVYFCLQVTHVPWTFGGGTKLEIK", "values": [{"measurement": "range of P. aeruginosa strains recognised", "setting": "[3]", "result": "recognition restricted to the wt serotype 5 strains PAO1 BAA-47 and 5937"}, {"measurement": "epitope relation in competition ELISA with mAb 3C4", "setting": "[4]", "result": "recognised similar overlapping epitopes"}]}]}
